Assay [1] has as its system HeLa. In words: Anticancer activity against human HeLa cells assessed as round cells incubated at 0.098uM for 72 hrs by phase contrast inverted microscopic analysis. The assay is classed as functional, cell-based.
In assay [2] the test system is HepG2. In words: Induction of apoptosis in human HepG2 cells assessed as total apoptotic cells incubated at 0.098 uM for 72 hrs by annexin V-FITC based propidium iodide dual staining assay (reference value: 0.99 +/- 0.02%). It counts as functional.
The subject of assay [3] is MCF7. In words: Induction of apoptosis in human MCF7 cells assessed as late apoptotic cells by measuring orange to red patch incubated at 0.098 uM for 72 hrs by acridine orange-ethidium bromide dual staining based fluorescence microscopic analysis. It counts as functional, cell-based.
Assay [4] relates to HepG2. In words: Induction of apoptosis in human HepG2 cells assessed as early apoptotic cells incubated at 0.098 uM for 72 hrs by annexin V-FITC based propidium iodide dual staining assay (reference value: 1.74%). The assay is classed as functional.
Assay [5] relates to HeLa. In words: Induction of apoptosis in human HeLa cells assessed as early apoptotic cells by measuring bright green patch incubated at 0.098 uM for 72 hrs by acridine orange-ethidium bromide dual staining based fluorescence microscopic analysis. It counts as functional, cell-based.
The test system of assay [6] is MCF7. In words: Induction of oxidative stress in human MCF7 cells assessed as cell death by measuring redox alteration fluorescence incubated at 0.017 uM for 72 hrs in presence of dihydro dichlorofluorescein diacetate by DCFH-DA based flow cytometric analysis relative to control. The assay is classed as functional. On the technique in general: Flow cytometry measures light scatter and fluorescence of single cells or particles in a stream.

Assay [7] relates to HeLa. In words: Induction of apoptosis in human HeLa cells assessed as caspase3/7 activation at 0.098 uM using caspase-glo 3/7 as substrate relative to control. The assay is classed as functional.
The subject of assay [8] is HeLa. In words: Induction of apoptosis in human HeLa cells assessed as caspase3/7 activation at 0.017 uM using caspase-glo 3/7 as substrate relative to control. It counts as functional.
Assay [9] relates to Caco-2. In words: Induction of apoptosis in human Caco-2 cells assessed as viable cells by measuring green uniform patch incubated at 0.017 uM for 72 hrs by acridine orange-ethidium bromide dual staining based fluorescence microscopic analysis. The assay is classed as functional, cell-based.
Assay [10] deals with HeLa. In words: Induction of apoptosis in human HeLa cells assessed as early apoptotic cells incubated at 0.017 uM for 72 hrs by annexin V-FITC based propidium iodide dual staining assay (reference value: 2.77%). The assay is classed as functional.
Assay [11] relates to HepG2. In words: Induction of apoptosis in human HepG2 cells assessed as necrotic cells incubated at 0.017 uM for 72 hrs by annexin V-FITC based propidium iodide dual staining assay (reference value: 0.33%). It counts as functional.
Assay [12] deals with MCF7. In words: Induction of apoptosis in human MCF7 cells assessed as early apoptotic cells incubated at 0.017 uM for 72 hrs by annexin V-FITC based propidium iodide dual staining assay (reference value: 0.06%). It counts as functional.
In assay [13] the test system is MCF7. In words: Anticancer activity against human MCF7 cells assessed as round cells incubated at 0.11 uM for 72 hrs by phase contrast inverted microscopic analysis. It counts as functional, cell-based.
The subject of assay [14] is HeLa. In words: Induction of apoptosis in human HeLa cells assessed as early apoptotic cells incubated at 0.11 uM for 72 hrs by annexin V-FITC based propidium iodide dual staining assay (reference value: 2.77%). The assay is classed as functional.
The subject of assay [15] is HeLa. In words: Anticancer activity against human HeLa cells assessed as cell shrinkage incubated at 0.11 uM for 72 hrs by phase contrast inverted microscopic analysis. The assay is classed as functional, cell-based.
Assay [16] concerns Caco-2. In words: Induction of apoptosis in human Caco-2 cells assessed as early apoptotic cells incubated at 0.097 uM for 72 hrs by annexin V-FITC based propidium iodide dual staining assay (reference value: 0.07%). The assay is classed as functional.
Assay [17] has as its system HepG2. In words: Anticancer activity against human HepG2 cells assessed as absence of normal spindle shape incubated at 0.097uM for 72 hrs by phase contrast inverted microscopic analysis. It counts as functional, cell-based.
In assay [18] the test system is MCF7. In words: Induction of apoptosis in human MCF7 cells assessed as late apoptotic cells incubated at 0.097 uM for 72 hrs by annexin V-FITC based propidium iodide dual staining assay (reference value: 0.01%). The assay is classed as functional.
Assay [19] concerns Caco-2. In words: Induction of apoptosis in human Caco-2 cells assessed as necrotic cells incubated at 0.097 uM for 72 hrs by annexin V-FITC based propidium iodide dual staining assay (reference value: 0.02%). The assay is classed as functional.
For assay [20], the system named is HeLa. In words: Induction of apoptosis in human HeLa cells assessed as necrotic cells incubated at 0.097 uM for 72 hrs by annexin V-FITC based propidium iodide dual staining assay (reference value: 0%). The assay is classed as functional.
Assay [21] has as its system HepG2. In words: Anticancer activity against human HepG2 cells assessed as losing contact with neighbouring cells incubated at 0.097uM for 72 hrs by phase contrast inverted microscopic analysis. It counts as functional, cell-based.
Assay [22] has as its system HeLa. In words: Induction of apoptosis in human HeLa cells assessed as viable cells incubated at 0.097 uM for 72 hrs by annexin V-FITC based propidium iodide dual staining assay (reference value: 97.23%). The assay is classed as functional. The conditions noted are these: read-out: Activity.
Assay [23] concerns HeLa. In words: Induction of oxidative stress in human HeLa cells assessed as cell death by measuring redox alteration fluorescence incubated at 0.097 uM for 72 hrs in presence of dihydro dichlorofluorescein diacetate by DCFH-DA based flow cytometric analysis relative to control. It counts as functional.
The test system of assay [24] is Caco-2. In words: Anticancer activity against human Caco-2 cells assessed as round cells incubated at 0.097uM for 72 hrs by phase contrast inverted microscopic analysis. It counts as functional, cell-based.
Assay [25] concerns MCF7. In words: Anticancer activity against human MCF7 cells assessed as smaller cells incubated at 0.097uM for 72 hrs by phase contrast inverted microscopic analysis. It counts as functional, cell-based.
The subject of assay [26] is Caco-2. In words: Induction of apoptosis in human Caco-2 cells assessed as late apoptotic cells by measuring orange to red patch incubated at 0.097 uM for 72 hrs by acridine orange-ethidium bromide dual staining based fluorescence microscopic analysis. The assay is classed as functional, cell-based.
Assay [27] relates to HepG2. In words: Anticancer activity against human HepG2 cells assessed as cell shrinkage incubated at 0.097uM for 72 hrs by phase contrast inverted microscopic analysis. The assay is classed as functional, cell-based.
Assay [28] concerns HeLa. In words: Anticancer activity against human HeLa cells assessed as absence of normal spindle shape incubated at 0.097uM for 72 hrs by phase contrast inverted microscopic analysis. The assay is classed as functional, cell-based.
The test system of assay [29] is MCF7. In words: Induction of apoptosis in human MCF7 cells assessed as early apoptotic cells incubated at 0.097 uM for 72 hrs by annexin V-FITC based propidium iodide dual staining assay (reference value: 0.06%). The assay is classed as functional.

Activity calls are given as the source filed them. The calls are words filed in the database; no cut-off is given here.

From ChEMBL document CHEMBL5380816, “Inclusion of Nitrofurantoin into the Realm of Cancer Chemotherapy via Biology-Oriented Synthesis and Drug Repurposing” (J Med Chem, 2023) come the findings set out here.

On to `O=C(CN1C(=O)CN(/N=C/c2ccc([N+](=O)[O-])o2)C1=O)c1ccc(Cl)cc1`, for which the result in assay [1], in assay [3] and in assay [5] was Active. The Activity in assay [2] is 38.74%; in assay [4], 6.31%; in assay [6], 34.7%; in assay [7] it was 75%.

For `O=c1[nH]cc(F)c(=O)[nH]1` [FLUOROURACIL], the Activity is given as 12% in assay [8], 7.6% in assay [10], 1.56% in assay [11] and 6.16% in [12]. In addition, the outcome in assay [9] was Active.

For the molecule `C#CCN1C(=O)CN(/N=C/c2ccc([N+](=O)[O-])o2)C1=O`, the outcome in assay [13] and in [15] was Active. Further, in [14], the Activity was determined as 9.44%.

On to `NS(=O)(=O)c1ccc(-n2cc(CN3C(=O)CN(/N=C/c4ccc([N+](=O)[O-])o4)C3=O)nn2)cc1`, for which the Activity is 30.95% in [16]; 60.48% in [18]; 13.8% in [19]; 4.26% in assay [20]; 53.5% in assay [23]; 4.85% in [29]. Moreover, the result in assay [17], in [21], in [24], in assay [25], in assay [26] and in assay [27] was Active. The outcome in assay [28] was Active. For the same molecule, the viability at 0.097 µM in assay [22] is 43.3%.
